In PubChem BioAssay (NCI):
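Growth conditions: 96-well plates. Treatment: test compound, 48 hours, 5 concentrations. Analysis: linear interpolation between bracketing concentrations; unreached endpoints set to highest concentration. The concentration for full growth arrest is given as TGI.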 Where a SMILES comes first, the peptide text is derived from it. The star is where a group is joined. Bn = c1ccc(C*)cc1

Columns and labels:
Experiment in all cases: NCI anticancer screen, dose series, 48 h
SF-295 CNS = test system: SF-295 CNS
RPMI-8226 leukemia = test system: RPMI-8226 leukemia
MALME-3M melanoma = test system: MALME-3M melanoma
SN12C renal = test system: SN12C renal
SW-620 colon = test system: SW-620 colon
UACC-62 melanoma = test system: UACC-62 melanoma
SF-268 CNS = test system: SF-268 CNS
NCI/ADR-RES ovarian = test system: NCI/ADR-RES ovarian
SK-MEL-5 melanoma = test system: SK-MEL-5 melanoma
SF-539 CNS = test system: SF-539 CNS

Structure (SMILES)	TGI (SF-295 CNS) [µM]	TGI (RPMI-8226 leukemia) [µM]	TGI (MALME-3M melanoma) [µM]	TGI (SN12C renal) [µM]	TGI (SW-620 colon) [µM]	TGI (UACC-62 melanoma) [µM]	TGI (SF-268 CNS) [µM]	TGI (NCI/ADR-RES ovarian) [µM]	TGI (SK-MEL-5 melanoma) [µM]	TGI (SF-539 CNS) [µM]
O/C(=C\c1nc2ccccc2nc1NC12CC3CC(CC(C3)C1)C2)c1ccc(Br)cc1	> 10	> 10	> 10	> 10	> 10	> 10	> 10	> 10	> 10	> 10
COc1cc(OCc2ccc3nc(OC)c(OC)nc3c2)cc(OC)c1OC	> 10	> 10	> 10	> 10	> 10	> 10	> 10	> 10	> 10	> 10
COc1cc2c(cc1OC)C13CC[N+]4(C)CC5=CCOC6CC(=O)N2C1C6C5CC34[O-] (stereo not given)	> 100	> 100	> 100	> 100	> 100	> 100	> 100	> 100	> 100	> 100
Cc1cc2nc(-c3cc(C(C)(C)C)c(O)c(C(C)(C)C)c3)[nH]c2cc1C	> 100	> 100	> 100	> 100	13.5	2.74	> 100	> 100	> 100	> 100
CC1=CC(=O)CC2(C)CCC(C(C)CC(=O)CC(C)C)CC12 (stereo not given)	> 100	60.8	62.4	32.6	46	59.1	> 100	> 100	36.4	30
Cc1c2ccncc2c(C)c2c1[nH]c1ccccc12	2	3.11	4.92	4.63	2.07	6.02	3.38	2.93	2.01	2.11
COC(=O)C1(Cc2ccc3c(c2)CCC3)Cc2ccccc2C1=O (stereo not given)	67.4	58.7	> 100	> 100	> 100	> 100	70.7	> 100	18.1	32.9
O=c1n(Cc2ccccc2)c(=O)n2c(=O)n(Cc3ccccc3)c(=O)n12	> 100	> 100	> 100	> 100	> 100	> 100	> 100	> 100	> 100	> 100
O=C1CC(Sc2nc3ccc(I)cc3c(=O)n2Cc2ccccc2)C(=O)NN1 (stereo not given)	36.9	45.5	33.1	27.6	35.2	29.3	30.1	52.1	29.7	35.5
COc1cc(CNc2nc3cc(C(F)(F)F)ccc3nc2-c2ccccc2)cc(OC)c1OC	> 100	> 100	72	> 100	> 100	33.3	> 100	81.8	73.3	> 100
CC1C(c2ccc3c(c2)OCO3)c2cc3c(cc2OC1N1CCOCC1)OCO3 (stereo not given)	> 93	61.6	97.6	> 100	> 100	69.5	> 100	60.6	42.7	49.5
COC(=O)C(CC(C)C)NC(=O)C(N)Cc1ccc(OCc2ccccc2)cc1 (stereo not given) (H-Tyr(Bn)-Leu-OMe; configuration not given here)	> 10	> 10	6.62	> 10	> 10	> 10	> 10	> 10	> 10	> 10
C=C1C(=O)OC2/C=C(/C)C3(O)OC(C)(CC(OC(=O)C(C)C)C12)CC3OC(C)=O (stereo not given)	56.5	> 100	36.5	17.5	> 45.1	31.6	> 100	> 100	23.8	> 29.5
C[C@]12CC[C@H](O)C=C1CC[C@@H]1[C@@H]2CC[C@]2(C)C(c3ccc(=O)oc3)CC[C@]12O (stereo not given in full)	0.0289	0.0733	0.014	0.0773	0.362	0.0378	0.0269	0.0926	0.0163	0.0152
NS(=O)(=O)c1ccc(NC(NC(=O)C(C(F)(F)F)C(F)(F)F)(C(F)(F)F)C(F)(F)F)cc1	> 100	> 100	> 100	> 100	> 100	> 100	> 100	> 100	> 100	> 100
N#CCCN(CCC#N)c1ccc(/C=C2\SC(=S)NC2=O)cc1Br	> 100	> 100	> 100	> 100	> 100	> 100	> 100	> 100	> 100	> 100
O=C(CCCN1CCC2(CC1)C(=NC1CCCCC1)NC(=O)N2c1ccccc1)c1ccc(F)cc1	39.2	49.5	29.9	40.7	> 100	46.5	40.1	51.4	37.9	33.9
Cc1cn2c(C)csc2c1P(=O)(OC(C)C)OC(C)C	> 100	> 100	> 100	> 100	> 100	> 100	> 100	> 100	> 100	> 100
O=C(CCc1cccc(O)c1)NCCCNC(=O)CCc1cccc(O)c1	> 100	> 100	> 100	> 100	> 100	> 100	> 100	> 100	> 100	> 100
Cc1c(C#N)c(N)n(C2OCC(O)C(O)C2O)c(=S)c1C#N (stereo not given)	> 100	> 100	> 100	> 100	> 100	> 100	> 100	> 100	> 100	> 100
CCCCC#CS(=O)(=O)C(F)(F)F	> 100	> 100	> 100	> 100	> 100	99.6	> 100	> 100	> 100	> 100
